Assay [1] deals with FBXW7 knockout (FBXW7-KO) DLD-1 cells. Put plainly: Western blot (Jess) of WEE1, pCDK1, replication stress, DNA damage and apoptosis markers after Azenosertib treatment, FBXW7 knockout cells. The format is cell-based. Here is the method:
(§1) FIG. 8 is a Western Blot image showing levels of FBXW7, WEE1 kinase, Cyclin E1, and other replication stress, DNA damage, apoptosis markers in DLD-1 parental and DLD-1 FBXW7-knockout colorectal cancer cells treated with DMSO (negative control) and 250 nM, 1 μM, and 10 µM of Azenosertib for 8 hours, 24 hours, or 48 hours.
(§2) Parental DLD-1 colorectal cancer cells or FBXW7 knockout (FBXW7-KO) DLD-1 cells (Creative Biogene, Cat No. CSC-RT0018, Lot No. 081723ZYX) were cultured in RPMI 1640 medium (ATCC modification) (Giboco) supplemented with 10% FBS (Gibco) and 1% penicillin-streptomycin (Gibco). Cells were maintained at 37° C. in an atmosphere containing 5% CO2.
(§3) The cultured cells were seeded at optimal density in 6-well plates, allowed to adhere overnight, and then treated with Azenosertib (250 nM, 1 μM, or 10 μM), with DMSO treatment as a negative control. After 8, 24, and 48 hours of drug exposure, cells were harvested, rinsed with PBS, lysed with cold RIPA buffer (Sigma) containing protease and phosphatase inhibitors for 15 minutes, and centrifuged at 4° C., 15,000 rpm for 15 minutes. Protein concentrations were measured using the Pierce BCA Protein Assay kit (Thermo Fisher). Jess™ plates were loaded and run according to the manufacturer's instructions (Bio-Techne). Primary antibodies anti-FBXW7 and anti-Cyclin E1 were purchased from Abcam, anti-phospho-H3, anti-Vinculin, anti-γH2AX, anti-phospho-CDK1, anti-phsopho-Chk1, anti-cleaved caspase 3, anti-Wee1, and anti-CDK1 were purchased from Cell Signaling Technology.
(In general: Immunoblotting shows a protein as a band on a membrane.)

The test system of assay [2] is solid tumor patients (HGSOC, USC, endometrial, colorectal, peritoneum cancer), FBXW7-mutated or wild-type. In words: Clinical outcome of Azenosertib monotherapy by FBXW7 mutational status (composite cohort of 356 patients). In kind it is in vivo, human. The conditions noted are these: daily dose at least 300 mg; for Objective Response Rate (ORR): continuous or intermittent schedule, p<0.02, FIG. 9A; for target lesion size reduction (median): p<0.05, FIG. 9B. Here is the method: FIG. 9B is a waterfall plot of the tumor size change in FBXW7-mutated or wild-type human subjects.
The predictive value of FBXW7 was investigated in a composite cohort of 356 patients treated with a daily dose of at least 300 mg of Azenosertib monotherapy on a continuous dosing schedule or an intermittent dosing schedule (e.g., 5 days on/2 days off, 4 days on/3 days off) and profiled with high-throughput DNA sequencing. Specifically, this composite cohort of patients was treated with a daily dose of 300 mg, or 350 mg, or 400 mg, or 450 mg of Azenosertib monotherapy on a continuous dosing schedule (i.e., QD, 7 days a week without any intermission), a daily dose of 300 mg, or 350 mg, or 400 mg, or 450 mg, or of 500 mg of Azenosertib monotherapy on an intermittent 5 days on/2 days off or 4 days on/3 days off schedule). The source of mutational status was a combination of local (reports from clinical sites) or central testing from either tumor or cell-free DNA. The mutational status was determined as mutated when at least one of the reports reported a pathogenic mutation and unmutated (wild-type) when all reports covering the FBXW7 gene were negative. The cohort investigated consists of patients diagnosed with high-grade serous ovarian carcinoma or HGSOC (N=211), uterine serous carcinoma or USC (N=57) or other solid tumor cancers including endometrial cancer, colorectal cancer, and peritoneum cancer […]. The patients mutated for FBXW7 (N=17-including […], 7 USC, 2 endometrial and 3 colorectal), were more likely to respond to Azenosertib monotherapy (Objective Response Rate or ORR=41% (7/17) for FBXW7-mutated patients vs. 16% (53/339) for FBXW7-wild-type patients; p<0.02—FIG. 9A [BOR=Best Overall Response; CR=Complete Response; PR—Partial Response; uPR=Unconfirmed Partial Response; SD=Stable Disease; PD=Progressive Disease).

Assay [3] relates to Parental DLD-1 colorectal cancer cells. In words: Western blot (Jess) of WEE1, pCDK1, replication stress, DNA damage and apoptosis markers after Azenosertib treatment, parental cells. The format is cell-based. The protocol: as §1, §2, §3
[4] abbreviates: FBXW7-KO DLD-1, 250 nM, 1 μM, 10 μM, 8, 24, 48 hours, vs DMSO, FIG. 8.
The mark [5] stands for this setting: FBXW7-KO DLD-1, 10 μM, more significant DNA damage compared to parental cell line.
Setting [6] is: 250 nM, 1 μM, 10 μM, 8, 24, 48 hours, vs DMSO, FIG. 8.

For the compound `C=CCn1c(=O)c2cnc(Nc3ccc(N4CCN(C)CC4)cc3)nc2n1-c1ccc2c(n1)[C@@](O)(CC)CC2` [Azenosertib], the WEE1 levels result in assay [1] (setting [4]) and in assay [3] (setting [6]) was “dose-dependent decrease” throughout. In addition, the “phospho-CDK1 (pCDK1) levels” value in assay [1] (setting [4]) and in assay [3] (setting [6]) was “dose-dependent decrease” each time. The pCDK1 level result in assay [1] (FBXW7-KO DLD-1, 10 μM, 48 hours) is recorded as “decreasing significantly”; in assay [3] (10 μM, 48 hours), “decreasing significantly”. The “gamma-H2AX (γH2AX) levels (DNA damage)” value in assay [1] (setting [5]) is recorded as “increase”. In addition, the “phospho-Chk1 (pChk1) levels (DNA damage)” value in assay [1] (setting [5]) is “increase”. The “cleaved caspase 3 levels (apoptosis)” value in assay [1] (FBXW7-KO DLD-1, e.g. 10 µM at 24 hours and 48 hours, compared to parental cell line) is “increase”. Also, in assay [1] (FBXW7-KO cells compared to the parental cell line), the “sensitivity to treatment with Azenosertib” value is reported as “more sensitive”. Further, the “Objective Response Rate (ORR)” value is listed as 41% in assay [2] (FBXW7-mutated patients (7/17)) and 16% in assay [2] (FBXW7-wild-type patients (53/339)). Besides, the “target lesion size reduction (median)” value in assay [2] (FBXW7-mutated patients) is −41%; in assay [2] (second-named group, FBXW7-wild-type patients), −8%.

Source of the values: US20260256793A1, “ALTERATION OF F-BOX AND WD REPEAT DOMAIN CONTAINING 7 (FBXW7) GENE AS A PREDICTIVE BIOMARKER FOR TREATING CANCER WITH WEE1 INHIBITORS” (Zeno Management, Inc., priority 2023, published 2026).
